Source: PubChem BioAssay AID248 (DTP/NCI, 2004)
“And” between values parts separate entries of the source, which are not always exact repeats. Equal entries are not always repeated. Inconclusive results and toxic doses are left out. Rule as the data show it: active = T/C of 150% or more; inactive = T/C below 125%.

Tested on: L1210 leukemia ip in BDF1 mice, survival T/C
Experiment: NCI In Vivo Anticancer Drug Screen. Data for tumor model L1210 Leukemia (intraperitoneal) in B6D2F1 (BDF1) mice
Details: endpoint: mean survival time, higher = longer survival
How it was run: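 Tumor cells were implanted, animals were treated, and survival was followed. The result divides the treated measurement by the vehicle-control measurement.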

[1] = dose: 50.0 mg/kg/injection, schedule: Q04DX002 (ip), vehicle: Klucel (hydroxypropylcellulose) (HPC)
[2] = dose: 50.0 mg/kg/injection, schedule: Q01DX001 (ip), vehicle: saline
[3] = dose: 100.0 mg/kg/injection, schedule: Q01DX001 (ip), vehicle: saline
[4] = dose: 200.0 mg/kg/injection, schedule: Q01DX001 (ip), vehicle: saline
[5] = dose: 400.0 mg/kg/injection, schedule: Q01DX001 (ip), vehicle: saline

Measured: T/C

OCC1OC(n2cc(I)c3cncnc32)C(O)C1O (stereo unspecified)
inactive: dose: 12.5 mg/kg/injection, schedule: Q01DX005 (ip), vehicle: saline 102 % of control | dose: 25.0 mg/kg/injection, schedule: Q01DX005 (ip), vehicle: saline 106 % of control | dose: 50.0 mg/kg/injection, schedule: Q01DX005 (ip), vehicle: saline 106 % of control

CC(=O)C12OC(C)(C)OC1CC1C3CCC4=CC(=O)CCC4(C)C3CCC12C (stereo unspecified)
inactive: dose: 12.5 mg/kg/injection, schedule: Q04DX002 (ip), vehicle: Klucel (hydroxypropylcellulose) (HPC) 108 % of control | dose: 25.0 mg/kg/injection, schedule: Q04DX002 (ip), vehicle: Klucel (hydroxypropylcellulose) (HPC) 108 % of control | [1] 94 % of control

CCCCOB(OCCCC)OCCCC
inactive: [2] 104 % of control | [3] 95 % of control | [4] 90 % of control | [5] 106 % of control

O=S1(=O)CCCC1
inactive: dose: 100.0 mg/kg/injection, schedule: Q01DX009 (ip), vehicle: saline 104 % of control | dose: 100.0 mg/kg/injection, schedule: Q04DX003 (ip), vehicle: saline 104 % of control | dose: 200.0 mg/kg/injection, schedule: Q01DX009 (ip), vehicle: saline 98 % of control | dose: 200.0 mg/kg/injection, schedule: Q04DX003 (ip), vehicle: saline 100 % of control | dose: 400.0 mg/kg/injection, schedule: Q01DX009 (ip), vehicle: saline 96 % of control | dose: 400.0 mg/kg/injection, schedule: Q04DX003 (ip), vehicle: saline 98 % of control

CCOC(=O)NNc1ccccc1
inactive: [3] 102 % of control | [4] 97 % of control

ClCN(CCl)CCl
inactive: dose: 50.0 mg/kg/injection, schedule: Q01DX001 (ip), vehicle: carboxymethylcellulose (CMC) 102 % of control | dose: 100.0 mg/kg/injection, schedule: Q01DX001 (ip), vehicle: carboxymethylcellulose (CMC) 94 % of control | dose: 200.0 mg/kg/injection, schedule: Q01DX001 (ip), vehicle: carboxymethylcellulose (CMC) 105 % of control

Cc1cccc(Cl)c1NC(=S)N1CCCC1
inactive: dose: 100.0 mg/kg/injection, schedule: Q01DX009 (ip), vehicle: Klucel (hydroxypropylcellulose) (HPC) 94 % of control | dose: 200.0 mg/kg/injection, schedule: Q01DX009 (ip), vehicle: Klucel (hydroxypropylcellulose) (HPC) 94 % of control | dose: 400.0 mg/kg/injection, schedule: Q01DX009 (ip), vehicle: Klucel (hydroxypropylcellulose) (HPC) 96 % of control

OCC1(CO)COC2(CCCC2)N1
inactive: [2] 101 % of control | [3] 97 % of control | [4] 95 % of control | [5] 103 % of control

C=C[N+](C)(C)C
inactive: dose: 5.0 mg/kg/injection, schedule: Q01DX001 (ip), vehicle: saline 100 % of control | dose: 10.0 mg/kg/injection, schedule: Q01DX001 (ip), vehicle: saline 107 % of control | dose: 20.0 mg/kg/injection, schedule: Q01DX001 (ip), vehicle: saline 103 % of control | dose: 40.0 mg/kg/injection, schedule: Q01DX001 (ip), vehicle: saline 103 % of control

OC(c1ccccc1)(c1ccccc1)c1ccccc1
inactive: dose: 9.0 mg/kg/injection, schedule: Q01DX015 (ip), vehicle: saline 95 % of control | dose: 18.0 mg/kg/injection, schedule: Q01DX015 (ip), vehicle: saline 101 % of control | dose: 36.0 mg/kg/injection, schedule: Q01DX015 (ip), vehicle: saline 98 % of control | [1] 97 % of control | dose: 72.0 mg/kg/injection, schedule: Q01DX015 (ip), vehicle: saline 98 % of control | dose: 100.0 mg/kg/injection, schedule: Q04DX002 (ip), vehicle: Klucel (hydroxypropylcellulose) (HPC) 95 % of control and 103 % of control | dose: 100.0 mg/kg/injection, schedule: Q04DX002 (ip), vehicle: other 95 % of control | dose: 143.0 mg/kg/injection, schedule: Q01DX015 (ip), vehicle: saline 91 % of control | dose: 200.0 mg/kg/injection, schedule: Q04DX002 (ip), vehicle: Klucel (hydroxypropylcellulose) (HPC) 94 % of control | dose: 200.0 mg/kg/injection, schedule: Q04DX002 (ip), vehicle: other 95 % of control | dose: 286.0 mg/kg/injection, schedule: Q01DX015 (ip), vehicle: saline 89 % of control | dose: 400.0 mg/kg/injection, schedule: Q04DX002 (ip), vehicle: Klucel (hydroxypropylcellulose) (HPC) 103 % of control and 88 % of control | dose: 400.0 mg/kg/injection, schedule: Q04DX002 (ip), vehicle: other 92 % of control | dose: 572.0 mg/kg/injection, schedule: Q01DX015 (ip), vehicle: saline 98 % of control
